Laboratory results taken from US10759785B2, “Compounds” (ENTERPRISE THERAPEUTICS LIMITED, priority 2016, dated 2020).
pIC50: −log10 of the molar value. Values belong to the molecule of their own block, whether it stands above or below them.

Legend:
[1] = target: T1, ENaC (Homo sapiens, UniProt P37088+P51168+P51170); assay: Short circuit current assay to determine ENaC blocker potency in human bronchial epithelial cells; type: cell-based; details: 50% inhibition of total amiloride-sensitive ISC, HBECs, apical addition; read-out: Averages. ENaC Ic50 μm Avg
T1 construct: host or cells: primary human bronchial epithelial cells (HBECs) differentiated at an air-liquid interface
T1 sequence (P37088 1-669): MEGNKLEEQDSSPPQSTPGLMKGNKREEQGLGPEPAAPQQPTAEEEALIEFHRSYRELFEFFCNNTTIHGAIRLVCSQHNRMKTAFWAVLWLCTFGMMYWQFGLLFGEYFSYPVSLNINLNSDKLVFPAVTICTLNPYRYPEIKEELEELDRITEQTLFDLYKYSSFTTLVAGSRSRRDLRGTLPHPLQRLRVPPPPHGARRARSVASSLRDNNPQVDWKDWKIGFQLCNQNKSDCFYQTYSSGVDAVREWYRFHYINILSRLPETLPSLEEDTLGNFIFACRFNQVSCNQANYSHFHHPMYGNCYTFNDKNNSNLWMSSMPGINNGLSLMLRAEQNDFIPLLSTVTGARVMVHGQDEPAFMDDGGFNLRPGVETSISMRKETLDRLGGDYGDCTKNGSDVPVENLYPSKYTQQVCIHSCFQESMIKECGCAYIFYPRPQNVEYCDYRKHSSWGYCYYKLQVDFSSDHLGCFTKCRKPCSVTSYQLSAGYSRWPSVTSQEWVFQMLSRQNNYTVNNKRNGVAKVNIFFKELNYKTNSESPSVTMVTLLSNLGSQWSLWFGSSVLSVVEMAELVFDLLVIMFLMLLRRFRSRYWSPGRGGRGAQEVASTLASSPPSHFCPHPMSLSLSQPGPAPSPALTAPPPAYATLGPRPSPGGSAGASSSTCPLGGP
T1 sequence (P51168 1-640): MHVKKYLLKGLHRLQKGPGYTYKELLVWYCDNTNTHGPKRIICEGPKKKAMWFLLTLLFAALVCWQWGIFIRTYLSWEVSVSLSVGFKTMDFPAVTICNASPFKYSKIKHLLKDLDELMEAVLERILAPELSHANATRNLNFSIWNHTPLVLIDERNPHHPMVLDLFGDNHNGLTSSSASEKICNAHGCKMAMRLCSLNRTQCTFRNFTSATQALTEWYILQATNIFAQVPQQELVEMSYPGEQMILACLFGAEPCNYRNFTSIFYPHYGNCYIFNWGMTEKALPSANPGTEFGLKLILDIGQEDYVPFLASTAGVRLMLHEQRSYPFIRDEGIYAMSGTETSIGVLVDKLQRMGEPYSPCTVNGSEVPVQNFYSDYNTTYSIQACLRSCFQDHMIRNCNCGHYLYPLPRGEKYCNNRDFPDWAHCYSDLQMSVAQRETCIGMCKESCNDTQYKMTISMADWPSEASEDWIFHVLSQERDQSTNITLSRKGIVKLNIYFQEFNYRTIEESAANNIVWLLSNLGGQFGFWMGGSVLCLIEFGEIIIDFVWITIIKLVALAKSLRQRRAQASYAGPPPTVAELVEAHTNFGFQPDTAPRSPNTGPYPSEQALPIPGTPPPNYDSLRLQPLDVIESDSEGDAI
T1 sequence (P51170 1-649): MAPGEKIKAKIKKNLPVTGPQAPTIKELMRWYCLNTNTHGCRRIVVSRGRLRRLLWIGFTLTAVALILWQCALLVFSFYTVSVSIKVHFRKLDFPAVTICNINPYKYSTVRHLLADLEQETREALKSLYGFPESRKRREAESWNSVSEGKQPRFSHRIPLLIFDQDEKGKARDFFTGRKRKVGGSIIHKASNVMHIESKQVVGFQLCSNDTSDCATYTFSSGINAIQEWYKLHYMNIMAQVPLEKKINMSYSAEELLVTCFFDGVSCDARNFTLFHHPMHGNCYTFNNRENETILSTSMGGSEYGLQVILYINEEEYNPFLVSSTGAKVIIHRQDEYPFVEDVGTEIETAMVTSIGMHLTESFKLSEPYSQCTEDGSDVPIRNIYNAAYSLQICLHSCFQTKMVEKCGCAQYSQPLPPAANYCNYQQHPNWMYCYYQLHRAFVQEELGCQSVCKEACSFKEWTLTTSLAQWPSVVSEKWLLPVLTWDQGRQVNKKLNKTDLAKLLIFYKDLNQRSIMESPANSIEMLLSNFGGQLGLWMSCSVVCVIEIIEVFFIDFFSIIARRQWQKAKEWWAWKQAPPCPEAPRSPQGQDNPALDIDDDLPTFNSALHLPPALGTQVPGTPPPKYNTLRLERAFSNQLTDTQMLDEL
Experimental: Example 27—Short Circuit Current Assay to Determine ENaC Blocker Potency in Human Bronchial Epithelial Cells
Human bronchial epithelial cells (HBECs) (Lonza, UK) were cultured using a modification of the method described by Coote et al, (2008). Cells were seeded into plastic T-75 flasks and grown in Bronchial Epithelial Cell Growth Medium (BEGM) (Lonza, UK) supplemented with bovine pituitary extract (52 ng/mL), hydrocortisone (0.5 μg/mL), human recombinant Epidermal Growth Factor (0.5 ng/mL), epinephrine (0.5 ng/mL), transferrin (10 ng/mL), insulin (5 ng/mL), retinoic acid (0.1 ng/mL), triiodothyronine (6.5 ng/mL), gentamycin (50 μg/mL) and amphotericin-B (50 ng/mL). Medium was changed every 48 hours until cells were 90% confluent. Cells were then passaged and seeded (8.25×10^5 cells/insert) onto polycarbonate Snapwell™ inserts (Costar, UK) in differentiation media containing 50% DMEM in BGEM with the same supplements as above but without triiodothyronine and a final retinoic acid concentration of 50 nM (all-trans retinoic acid; Sigma-Aldrich, UK). Cells were maintained submerged for the first 7 days in culture after which time they were exposed to an apical air interface for the remainder of the culture period. From the first day of establishment of an ALI, HBEC were fed with a DMEM:HAMS F-12 (1:1) media containing 2% Ultroser G (Pall BioSepra, France) with gentamycin (50 μg/mL) and amphotericin B (50 ng/mL). Cells were used for short-circuit current assay between days 14-21 after the establishment of the ALI. At all stages of culture, cells were maintained at 37′C in 5% CO2 in an air incubator.
Short-Circuit Current (ISC) Measurements
Snapwell inserts were mounted in Costar Vertical Diffusion Chambers (Costar, UK) and were bathed with continuously gassed Ringer solution (5% CO2 in O2; pH 7.4) maintained at 37° C. containing (in mM): 120 NaCl, 25 NaHCO3, 3.3 KH2PO4, 0.8 K2HPO4, 1.2 CaCl2, 1.2 MgCl2 and 10 glucose. The solution osmolarity was always between 280-300 mOsm/kg H2O for all physiological salt solutions used. Cells were voltage clamped to 0 mV (model EVC4000, WPI). Transepithelial resistance (RT) was measured by applying a 2 mV pulse at 30 s intervals and calculating RT by Ohm's law. Data were recorded using a PowerLab workstation (ADInstruments, UK).
ENaC blocker compounds were added to the apical chamber from a 1000-fold stock solution (prepared in DMSO) to achieve a cumulative concentration response in terms of the inhibition of the basal ISC. At the completion of the concentration response, a supra-maximal concentration of amiloride (10 μM) was added. The concentration of test compound that induced a 50% inhibition of the total amiloride-sensitive ISC (IC50) was calculated using GraphPad Prism v6.05.

[2] = Microsomal stability (human microsomes); type: in vitro ADME; details: pH 7.4, 1 μM test compound, 0.5 mg/mL protein, 1 mM NADPH, 37° C., read-out: Averages. Mic Half Life Human
Experimental: (§1) Example 28—Microsomal Stability
(§2) Microsomes (rat and human) were obtained from Bioreclamation. Test compound stock solutions in DMSO (10 mM) were diluted with DMSO to 2 mM. Further dilution was completed to achieve a 100 μM stock (final concentrations; 91.5% Acetonitrile: 8.5% DMSO). Final test compound concentration in incubation was 1 μM (<0.1% DMSO). The following probe substrates were used: verapamil, propranolol, metoprolol and phenacetin (rat) at a final incubation concentration of 1 μM. Assay buffer—Solution 1: 17.4 g potassium phosphate dibasic anhydrous (K2HPO4, 0.1 M) dissolved in 1 L deionised water. Solution 2: 13.6 g potassium phosphate monobasic anhydrous (KH2PO4, 0.1 M) dissolved in 1 L deionised water. Potassium phosphate solutions 1 and 2 were combined to form a pH 7.42 solution at 37° C. pH 7.4 with 2 mM magnesium chloride. NADPH (10 mM)—diluted in deionised water. Frozen microsomes were thawed at 37° C. Microsomes were diluted in assay buffer to achieve a final protein concentration of 0.5 mg/mL and 1 mM NADPH. The following procedure was completed on a Perkin Elmer Janus robotic platform in 96 well format: The microsomal incubation plate was transferred to a heater shaker at 300 rpm and solution heated to 37° C. for 10 min pre-warm. A no co-factor control at 0 and 45 min and one replicates of each test compound was included in every assay. Microsomes were incubated at 37° C., on a shaker set at 300 rpm throughout the assay. At each timepoint (0, 5, 15, 30, 45 min) 50 μL of sample was removed from the 96-well and added to 200 μL of quench solution (acetonitrile containing 0.1% formic acid and imipramine/labetalol, 200 nM). Samples were diluted 1:1 with water using the Janus Robot and analysed by LC-MS/MS.

[3] = Microsomal stability (rat microsomes); type: in vitro ADME; details: pH 7.4, 1 μM test compound, 0.5 mg/mL protein, 1 mM NADPH, 37° C., read-out: Averages. Mic Half Life Rat
Experimental: as §1, §2

[4] = Hepatic stability (human cryopreserved hepatocytes); type: in vitro ADME; details: cryopreserved hepatocytes, pH 7.4, 1 μM test compound, 1×10^6 cells/mL, 37° C., read-out: Averages. Hep Half Life Human
Experimental: (§3) Example 29—Hepatic Stability
(§4) Cryopreserved hepatocytes (rat and human) were obtained from Bioreclamation. Test compound stock solutions in DMSO (10 mM) were diluted with DMSO to 4 mM. Further dilution was completed to achieve a 100 μM stock (5 μL of 4 mM in 195 μL of 50:50 DMSO:hepatocyte buffer). Final test compound concentration in incubation was 1 μM. The following probe substrates were used: testosterone and carbamazepine at a final incubation concentration of 1 μM. Hepatocyte buffer was prepared (Williams E media containing phenol red and Glutamax™, 15 mM HEPES, warmed to 37° C., pH7.4 with NaOH). Cells were removed from liquid nitrogen, thawed in a waterbath, decanted into 50 mL of pre-warmed Cryopreserved Hepatocyte Recovery Media (LifeTechnologies) and centrifuged. Supernatant fraction was removed, cells were re-suspended in hepatocyte buffer and counted by trypan blue exclusion. Cell viability of >80% was required for all assays. Cells were re-suspended to 1×10^6/mL and 198 μL cell suspension added to each 96-well. 2 μL of 100 μM compound stock solution was added to relevant wells to initiate the incubation. A no cell control and two replicates of each test compound was included in every assay. Cells were incubated at 37° C., on a shaker set at 300 rpm. At each timepoint (0, 15, 30, 45, 60, 90 min) 20 μL of sample was removed from the 96-well and added to 80 μL of quench solution (acetonitrile containing 0.1% formic acid and imipramine/labetalol, 200 nM). Samples were diluted 1:1 with water using the Janus Robot and analysed by LC-MS/MS.

[5] = Hepatic stability (rat cryopreserved hepatocytes); type: in vitro ADME; details: pH 7.4, 1 μM test compound, 1×10^6 cells/mL, 37° C., read-out: Averages. Hep Half Life Rat
Experimental: as §3, §4

[6] = target: T1, ENaC; details: cited from earlier work

- pIC50 [1]: 7.85
Compound: CCn1c(CNC(=O)c2nc(Br)cnc2N)[n+](CC)c2ccc(C(=O)O)cc21 [Example 16, 2-{[(3-amino-6-bromopyrazin-2-yl)formamido]methyl}-6-carboxy-1,3-diethyl-1H-1,3-benzodiazol-3-ium bromide]

- half-life at 1 μM [2]: 12 min
- half-life at 1 μM [3]: 3 min
- half-life at 1 μM [4]: 44 min
- half-life at 1 μM [5]: 6 min
Compound: CCn1c(CNC(=O)c2nc(Br)cnc2N)[n+](C)c2ccc(OC)cc21.[I-] [Example 1, 2-{[(3-amino-6-bromopyrazin-2-yl)formamido]methyl}-1-ethyl-6-methoxy-3-methyl-1H-1,3-benzodiazol-3-ium iodide]

Compound: N=C(N)NC(=O)c1nc(Cl)c(N)nc1N [Amiloride]
- Effect on MCC ([6]; healthy controls and patients with CF): increase MCC
- Effect on clinical endpoints ([6]; inhaled amiloride): lack of a robust effect
